Reference: patent publication US20200069644A1, “NOVEL USE OF A FORMYL PEPTIDE RECEPTOR 2/ LIPOXIN A4 RECEPTOR (FPR2/ALX) AGONIST FOR TREATMENT OF HEART FAILURE” (BRISTOL- MYERS SQUIBB COMPANY, priority 2017, published 2020)

Test system: myocardial infarction in rats
Experiment: Rat model of permanent coronary artery occlusion, 6 weeks
Type: in vivo
Method: In a second model of myocardial infarction, permanent coronary artery occlusion was carried out in rats using a ligature placed around the left anterior descending artery to induce myocardial infarction. Treatment with orally-administered Compound 1 (0.01, 0.1, 1, and 10 mg/kg, QD) or dosing solution without compound (QD, referred to as vehicle) was initiated 48 hours following myocardial infarction. Rats subjected to thoracotomy but not infarcted were included as surgical “sham” controls. Rats were evaluated 6 weeks following myocardial infarction to assess structure/function relationships. Hearts were removed from rats for histological processing to measure infarct wall thickness and collagen composition. Echocardiography was carried out to evaluate cardiac function.
The effects of Compound 1 on left ventricle and infarct scar remodeling were evaluated in a rat model of permanent coronary artery occlusion. […] In addition, the effect of Compound 1 on cardiac function was measured by echocardiography to assess structure/function relationships. The structure of the myocardial wall was measured histologically. […]
Echocardiography was used to measure cardiac function at the end of the treatment phase. The fraction of blood pumped out of the left ventricle per contraction cycle (i.e., ejection fraction) was determined using M-mode echocardiography. […]

COc1cc(F)c([C@@H]2CNC(=O)[C@H]2NC(=O)Nc2ccccc2)c(F)c1 [Compound 1, 1-((3S,4R)-4-(2,6-difluoro-4-methoxyphenyl)-2-oxopyrrolidin-3-yl)-3-phenylurea]
contralateral wall thickness (0.01-10 mg/kg, between treatment groups or sham): No changes
transmural infarct wall thickness, increase relative to vehicle (10 mg/kg PO QD, started 48 h after MI, P<0.01): 96%
